Here are results for 30 compounds from patent US10807970B2 (priority 2016, dated 2020).

The structures appear in SMILES notation.

Chain of human σ1 receptor (Q99720 whole entry): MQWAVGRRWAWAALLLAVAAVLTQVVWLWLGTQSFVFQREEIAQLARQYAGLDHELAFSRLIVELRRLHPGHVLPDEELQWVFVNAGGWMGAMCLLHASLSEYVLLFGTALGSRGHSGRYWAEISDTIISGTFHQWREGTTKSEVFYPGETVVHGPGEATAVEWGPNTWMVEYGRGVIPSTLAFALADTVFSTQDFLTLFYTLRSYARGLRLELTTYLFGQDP

The target in the first experiment is human σ1 receptor (Homo sapiens, UniProt Q99720). Put plainly: Human σ1 receptor radioligand assay ([3H](+)-pentazocine, transfected HEK-293 membranes). As to conditions: one class symbol for both Ki-σ1 (human σ1 receptor, A1) and Ki-μ (human μ-opioid receptor, A2). Also on record: μ and σ1 dual binding: key to the marks not given beside the values. It counts as binding. In outline:
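Membranes from HEK-293 cells transfected with human σ1 receptor (7 μg) incubated with 5 nM [3H](+)-pentazocine in 50 mM Tris-HCl pH 8, 120 min at 37° C. Non-specific binding defined with 10 μM haloperidol. Bound radioligand separated by filtration, washed with ice-cold 10 mM Tris-HCl pH 7.4, and counted by scintillation.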
For the compound `CC(C)(O)CCN1CCN(C2(C(=O)c3ccccn3)CCOC(C)(C)C2)CC1` (stereo not drawn) [Example 90, (4-(4-(3-hydroxy-3-methylbutyl)piperazin-1-yl)-2,2-dimethyltetrahydro-2H-pyran-4-yl)(pyridin-2-yl)methanone], the “μ and σ1 dual binding” value is “++”.

On to `CC(C)OCCN1CCN([C@@]2(C(=O)c3ccccn3)CCO[C@H](C)C2)CC1` [Example 95], for which the “μ and σ1 dual binding” value is “++”.

For `CC(C)CCN1CCN([C@@]2(C(=O)c3ccccn3)CCO[C@H](C)C2)CC1` [Example 97], the “μ and σ1 dual binding” value is on record as “++”.

Consider `CC(C)C1(N2CCN(CCc3cccc(F)c3F)CC2)CCOC(C)(C)C1` (stereo not drawn) [Example 101, 1-(2,3-difluorophenethyl)-4-(4-isopropyl-2,2-dimethyltetrahydro-2H-pyran-4-yl)piperazine], for which the “μ and σ1 dual binding” value was “++”.

`CC(C)CN1CCC(C2(C(=O)c3ccccn3)CCOC(C)(C)C2)CC1` (stereo not drawn) [Example 102, (4-(1-isobutylpiperidin-4-yl)-2,2-dimethyltetrahydro-2H-pyran-4-yl)(pyridin-2-yl)methanone]: the “μ and σ1 dual binding” value is reported as “++”.

As to `CCOCCN1CCC(C2(C(=O)c3ccccn3)CCOC(C)(C)C2)CC1` (stereo not drawn) [Example 104], the “μ and σ1 dual binding” value is reported as “++”.

For the compound `CC1(C)CC(C(=O)c2ccccn2)(C2CCN(Cc3ccc(F)cc3)CC2)CCO1` (stereo not drawn) [Example 109, (4-(1-(4-fluorobenzyl)piperidin-4-yl)-2,2-dimethyltetrahydro-2H-pyran-4-yl)(pyridin-2-yl)methanone], the “μ and σ1 dual binding” value is “++”.

Regarding `CC1(C)CC(C(=O)c2ccccn2)(C2CCN(Cc3ccccc3F)CC2)CCO1` (stereo not drawn) [Example 110, (4-(1-(2-fluorobenzyl)piperidin-4-yl)-2,2-dimethyltetrahydro-2H-pyran-4-yl)(pyridin-2-yl)methanone], the “μ and σ1 dual binding” value was “++”.

`CC[C@@]1(N2CCN(CCc3ccccc3)CC2)CCOC(C)(C)C1` [Example 113, (R) 1-(4-ethyl-2,2-dimethyltetrahydro-2H-pyran-4-yl)-4-phenethylpiperazine]: the “μ and σ1 dual binding” value was “++”.

In the case of `c1ccc(C2(N3CCN(Cc4cccnc4)CC3)CCOC3(CCCC3)C2)cc1` (stereo not drawn) [Example 119, 1-(9-phenyl-6-oxaspiro[4.5]decan-9-yl)-4-(pyridin-3-ylmethyl)piperazine], the “μ and σ1 dual binding” value is listed as “++”.

The same experiment, now with this note: one class symbol for both Ki-σ1 (human σ1 receptor, A1) and Ki-μ (human μ-opioid receptor, A2); read-out: μ and σ1 dual binding.
Consider `CC(C)OCCN1CCN([C@]2(C(=O)c3ccccn3)CCO[C@@H](C)C2)CC1` [Example 96], for which the Ki is greater than 500 nM.

As for `CC(C)CCN1CCN([C@]2(C(=O)c3ccccn3)CCO[C@@H](C)C2)CC1` [Example 98], the Ki was less than 500 nM.

As to `CCOCCCN1CCC(C2(C(=O)c3ccccn3)CCOC(C)(C)C2)CC1` (stereo not drawn) [Example 103], the Ki is greater than 500 nM.

As for `CC[C@]1(N2CCN(CCc3ccccc3)CC2)CCOC(C)(C)C1` [Example 112, (S)-1-(4-ethyl-2,2-dimethyltetrahydro-2H-pyran-4-yl)-4-phenethylpiperazine], the Ki is less than 500 nM.

Staying with this experiment, now noted: μ and σ1 dual binding, one class symbol for both Ki-σ1 (human σ1 receptor, A1) and Ki-μ (human μ-opioid receptor, A2).
For `CC(C)OCCN1CCCN(C2(C(=O)c3ccccn3)CCOC(C)(C)C2)CC1` (stereo not drawn) [Example 88, (4-(4-(2-isopropoxyethyl)-1,4-diazepan-1-yl)-2,2-dimethyltetrahydro-2H-pyran-4-yl)(pyridin-2-yl)methanone], the Ki is less than 500 nM.

Turning to `CC(C)C1(N2CCN(CCc3ccccc3F)CC2)CCOC(C)(C)C1` (stereo not drawn) [Example 89, 1-(2-fluorophenethyl)-4-(4-isopropyl-2,2-dimethyltetrahydro-2H-pyran-4-yl)piperazine], the Ki is less than 500 nM.

Compound `CC(C)C1(N2CCN(CCc3cccc(F)c3)CC2)CCOC(C)(C)C1` (stereo not drawn) [Example 91, 1-(3-fluorophenethyl)-4-(4-isopropyl-2,2-dimethyltetrahydro-2H-pyran-4-yl)piperazine] registered a Ki of less than 500 nM.

Compound `CC(C)C1(N2CCN(CCc3cc(F)ccc3F)CC2)CCOC(C)(C)C1` (stereo not drawn) [Example 92, 1-(2,5-difluorophenethyl)-4-(4-isopropyl-2,2-dimethyltetrahydro-2H-pyran-4-yl)piperazine] showed a Ki of less than 500 nM.

The compound `CCC1(N2CCN(CCc3cccc(F)c3)CC2)CCOC(C)(C)C1` (stereo not drawn) [Example 93, 1-(4-ethyl-2,2-dimethyltetrahydro-2H-pyran-4-yl)-4-(3-fluorophenethyl)piperazine] had a Ki of less than 500 nM.

`CCC1(N2CCN(CCc3ccccc3F)CC2)CCOC(C)(C)C1` (stereo not drawn) [Example 94, 1-(4-ethyl-2,2-dimethyltetrahydro-2H-pyran-4-yl)-4-(2-fluorophenethyl)piperazine]: the Ki was less than 500 nM.

The compound `CCC1(N2CCN(CCc3cc(F)ccc3F)CC2)CCOC(C)(C)C1` (stereo not drawn) [Example 99, 1-(2,5-difluorophenethyl)-4-(4-ethyl-2,2-dimethyltetrahydro-2H-pyran-4-yl)piperazine] came in with a Ki of less than 500 nM.

Take `CCC1(N2CCN(CCc3cccc(F)c3F)CC2)CCOC(C)(C)C1` (stereo not drawn) [Example 100, 1-(2,3-difluorophenethyl)-4-(4-ethyl-2,2-dimethyltetrahydro-2H-pyran-4-yl)piperazine]: the Ki is less than 500 nM.

In the case of `CC(C)OCCCN1CCC(C2(C(=O)c3ccccn3)CCOC(C)(C)C2)CC1` (stereo not drawn) [Example 107, (4-(1-(3-isopropoxypropyl)piperidin-4-yl)-2,2-dimethyltetrahydro-2H-pyran-4-yl)(pyridin-2-yl)methanone], the Ki was greater than 500 nM.

With `CC1(C)CC(C(=O)c2ccccn2)(C2CCN(Cc3cccc(F)c3)CC2)CCO1` (stereo not drawn) [Example 108, (4-(1-(3-fluorobenzyl)piperidin-4-yl)-2,2-dimethyltetrahydro-2H-pyran-4-yl)(pyridin-2-yl)methanone], the Ki was less than 500 nM.

`CC1(C)CC(C(=O)c2ccccn2)(N2CCN(CCc3ccccc3F)CC2)CCO1` (stereo not drawn) [Example 111, (4-(4-(2-fluorophenethyl)piperazin-1-yl)-2,2-dimethyltetrahydro-2H-pyran-4-yl)(pyridin-2-yl)methanone] displayed a Ki of less than 500 nM.

Compound `CC(C)CCN1CCC([C@]2(C(=O)c3ccccn3)CCOC(C)(C)C2)CC1` [Example 114, (S)-(4-(1-isopentylpiperidin-4-yl)-2,2-dimethyltetrahydro-2H-pyran-4-yl)(pyridin-2-yl)methanone] gave a Ki of less than 500 nM.

As to `CC(C)CCN1CCC([C@@]2(C(=O)c3ccccn3)CCOC(C)(C)C2)CC1` [Example 115, (R)-(4-(1-isopentylpiperidin-4-yl)-2,2-dimethyltetrahydro-2H-pyran-4-yl)(pyridin-2-yl)methanone], the Ki was less than 500 nM.

For `CC(C)(F)COCCN1CCN(C2(C(=O)c3ccccn3)CCOC(C)(C)C2)CC1` (stereo not drawn) [Example 116, (4-(4-(2-(2-fluoro-2-methylpropoxy)ethyl)piperazin-1-yl)-2,2-dimethyltetrahydro-2H-pyran-4-yl)(pyridin-2-yl)methanone], the Ki was less than 500 nM.

In the case of `CC(C)(F)CCN1CCN(C2(C(=O)c3ccccn3)CCOC(C)(C)C2)CC1` (stereo not drawn) [Example 117, (4-(4-(3-fluoro-3-methylbutyl)piperazin-1-yl)-2,2-dimethyltetrahydro-2H-pyran-4-yl)(pyridin-2-yl)methanone], the Ki was less than 500 nM.

As to `C=C(C)CCN1CCN(C2(C(=O)c3ccccn3)CCOC(C)(C)C2)CC1` (stereo not drawn) [Example 118, (2,2-Dimethyl-4-(4-(3-methylbut-3-enyl)piperazin-1-yl)tetrahydro-2H-pyran-4-yl)(pyridin-2-yl)methanone], the Ki was less than 500 nM.
